The source of these data is patent US20220226349A1, “TOPICAL NEUROSTEROID FORMULATIONS” (Arizona Board of Regents on Behalf of the University of …, priority 2019, published 2022).

The nature of series [1]: Saturated solubility of Allo in oils. The series is classed as physicochemical. As to conditions: oil or lipid, thermodynamic from solid, room temperature, mean ± SD, n=3. The method, then: The solubility of Allo was determined in CAPMUL® MCM EP/NF (monodiglyceride of medium chain fatty acids, commercially available from Abitec Corporation (Columbus, Ohio), CAS Number 91744-32-0, or 26402-22-2, and 26402-26-6), isopropyl myristate, and oleic acid, by adding an excess amount of Allo to 1 mL of each oil in a glass vial. The vial was rocked for 72 h at room temperature. The excessive amount of Allo was filtered through a syringe membrane filter (0.2 μm). The amount of Allo dissolved in each oil was determined using HPLC.
An HPLC analytical method was developed by employing the SHIMADZU LC2010A HT for in vitro and ex vivo evaluation of Allo from microemulsions (MEs). Chromatographic separation was achieved using a PHENOMENEX® KINETEX® Phenyl-hexyl 2.6 μm reverse-phase (150×4.6 mm) column. The mobile phase was a mixture of 0.1% acetic acid in water and methanol, 20:80 (v/v) and flowed at 0.4 ml/min for 15 min The injection volume was 10 μl and the UV detection wavelength was 206 nm. A standard curve was constructed at the concentration range of 7.8-1,000

The nature of series [2]: Saturated solubility of Allo in receptor media. Format: physicochemical. As to conditions: aqueous with cosolvent or surfactant or cyclodextrin, thermodynamic from solid, 32° C., n=3, read-out: Solubility of Allo in receptor medium. The method, then:
To select a receptor medium placed in the receptor compartment of the Franz chamber, the saturated solubilities of Allo in various media were determined. PBS at pH 7.4 has been commonly used to mimic the physiological condition. […] An excessive amount of Allo was added to 1 ml of the following media: (1) 10% (w/v) 2-hydroxypropyl-β-cyclodextrin (HβCD), (2) 40% (v/v) isopropyl alcohol (IPA), (3) 30% (v/v) CREMOPHOR EL®, and (4) 20% (v/v) IPA and 25% (v/v) CREMOPHOR EL®. The solutions were kept under constant magnetic stirring at 600 rpm for 24 h and placed in an incubator at 32° C. After 24 h, the excessive amount of Allo was filtered through a 0.2 μm syringe membrane and the filtered solution was injected into the HPLC for analysis.

Series [3] deals with RPMI 2650 (human nasal) cell line. As to the kind of experiment: In vitro cell viability (resazurin assay) after treatment of Allo, RPMI 2650. The series is classed as cell-based. Particulars: RPMI 2650, Allo 0.001-10 μM, 72 h. The method, then:
(§1) Cell viability was evaluated in human skin (HaCaT)cell line by performing a resazurin assay after the treatment of Allo. Resazurin is a cell permeable redox indicator, and viable cells with active metabolism can reduce resazurin into resorufin, which is fluorescent (Riss et al., Cell Viability Assays, in Assay Guidance Manual, 2016). The HaCaT cells were grown in optimized Dubelco's Modified Eagle's medium (DMEM) (containing 2 mM of L-glutamine, 2 mM of sodium pyruvate, 4500 mg/L of glucose, and 1500 mg/L of sodium bicarbonate) supplemented with 10% fetal bovine serum (FBS). The TR 146 cells were grown in Ham's F12 medium supplemented with 10% FBS, 1% penicillin-streptomycin, and 0.2% L-Glutamine The RPMI 2650 cells were grown in Eagle's Minimum Essential medium (EMEM) supplemented with 10% FBS, 1% penicillin-streptomycin, and 0.2% amphotericin […]. Cells were plated in a 96-well plate at a density of 5,000 cells per each well (100 μl) and incubated at 37° C. and 5% CO2 for 48 h. Allo was prepared in cell culture media with the addition of 1% (v/v) ethanol to aid Allo solubility. The final concentration range of Allo treated to the cells was 0.001-10 μM. […] The cell viability was measured using Synergy H1 Multi-Mode Reader (BioTek Instruments Inc., Winooski, Vt.) at the excitation wavelength of 544 nm and emission wavelength of 590 nm.

In series [4] the test system is HaCaT (human skin) cell line. The experiment in a line: In vitro cell viability (resazurin assay) after treatment of Allo, HaCaT. The series is classed as cell-based. As to conditions: 72 h. The method, then: as §1
(In general: Alamar Blue is a resazurin reagent that responds to reducing activity.)

Series [5] relates to TR 146 (human buccal) cell line. The experiment in a line: In vitro cell viability (resazurin assay) after treatment of Allo, TR 146. The series is classed as cell-based. As to conditions: TR 146, Allo 0.001-10 μM, 72 h. The method, then:
as §1

In brackets after ≈: the same amount, converted by molar mass. Like-named read-outs stand apart in the source and are kept apart here.

Broadly, the solubility is the concentration that dissolves in the medium under given conditions. Consider `CC(=O)[C@H]1CC[C@H]2[C@@H]3CC[C@H]4C[C@H](O)CC[C@]4(C)[C@H]3CC[C@]12C` [Allo, 3α-hydroxy-5α-pregnan-20-one], for which the solubility at 72 h in series [1] (in CAPMUL® MCM) was 28400 ± 1920 µg/mL (≈ 89 mM); in series [1] (in isopropyl myristate) it was 8880 ± 170 µg/mL (≈ 27.9 mM); in series [1] (in oleic acid), 17800 ± 3970 µg/mL (≈ 55.9 mM). The solubility at 24 h in series [2] (PBS (pH 7.4) containing 10% (w/v) HβCD) stood at 3450 ± 30 µg/mL (≈ 10.8 mM); in series [2] (PBS (pH 7.4) containing 20% (v/v) IPA and 25% (v/v) CREMOPHOR EL®) it was 3350 ± 120 µg/mL (≈ 10.5 mM); in series [2] (PBS (pH 7.4) containing 30% (v/v) CREMOPHOR EL®), 1990 ± 170 µg/mL (≈ 6.25 mM); in series [2] (PBS (pH 7.4) containing 40% (v/v) IPA), 1130 ± 130 µg/mL (≈ 3.55 mM). Moreover, the Viability percent range is recorded as 107.32-113.60% in series [3]; 84.16-102.70% in series [4] (HaCaT, Allo 0.001-10 μM); 93.89-112.44% in series [5]. The “Viability compared to the control group” value in series [4] (stated for the tested cell lines (HaCaT, TR 146, RPMI 2650), control without Allo) is on record as “No significant decrease in viability”.
